# Key:
# [1] = oral administration to rats; cited from earlier work
# [2] = Regeneration of the parent drug by rat plasma hydrolysis of the prodrug; assay type: in vitro ADME; details: 37° C., initial prodrug concentration 6.3×10^-5 M, n=2, HPLC
# Experimental: The rate of hydrolysis of the acetoxyisopropyl carbamate prodrug of [3(R)-2-(piperidine-4-yl)ethyl]-2-piperidone-1-[(3R)-methyl-5-ketopentanoic acid]by plasma enzymes was studied by measuring the formation of the parent amine drug at 37° C. in rat plasma. The reaction was initiated by adding an aqueous solution of the carbamate prodrug to the reaction medium pre-equilibrated at 37° C. in a thermostated water bath. The initial concentration of the prodrug in rat plasma was 6.3×10^-5 M. Samples (100 μl) were withdrawn at intervals and mixed with saturated ammonium sulfate (200 μl), vortex mixed for 10 seconds and centrifuged for 5 minutes at 14,000 g to precipitate plasma proteins. The supernatant was injected directly and analyzed by HPLC on a 20 cm Brownlee Spheri-5 RP-18 column combined with a similar 3 cm guard column. The mobile phase used for the analysis was 0.01M K2 HPO4 buffer (adjusted to pH 6.5 with phosphoric acid) containing 3% acetonitrile at a flow rate of 1 mL/min. The retention time under these conditions for the amine drug was approximately 15 minutes. The concentration of the compounds was measured at 210 nm using a variable wavelength. UV detector.
Compound,regeneration of the parent drug [1],half-life at 63 µM [2] [min]
CCn1cc(C(=O)O)c(=O)c2cc(F)c(N3CCN(Cc4oc(=O)oc4C)CC3)cc21 [alkylated nofloxacin],regenerated the parent drag,–
"CC(=O)OC(C)(C)OC(=O)N1CCC(CC[C@@H]2CCCN(CC(=O)N[C@H](C)CC(=O)O)C2=O)CC1 [acetoxyisopropyl carbamate prodrug, {3(R)-2-{1-[2(Acetoxy)isopropoxycarbonylpiperidine-4yl]-ethyl}piperidone-1}-acetyl-3(R)-methyl-β-alanine]",–,32 ± 6
